Tests used:
[1] = test system: strips of rat urinary bladder; assay: eNANC contractile response to electrical field stimulation in isolated urinary bladder strips from CYP-treated rats; type: in vivo; settings: intravenous pretreatment 30 μg/kg; bladders taken 48 h after CYP 150 mg/kg i.p.
Protocol: Male Sprague-Dawley rats and Swiss mice were administered with CYP (150 mg/kg, i.p.) or its vehicle (0.9% NaCl) for cystitis induction. 48 hours later urinary bladders were removed and placed in an organ bath for motor response measurement. Writhing behaviors and plasma protein extravasation were investigated 90 min after the CYP administration. Strips of rat urinary bladder were taken from terminally anesthetized animals and mounted in organ baths and after an equilibration period the eNANC contractile response to electrical field stimulation (EFS, 5 Hz, 1 ms width, 10 V) in the absence and presence of atropine (1 μM) is studied (Rigoni et al., 2003, Br J Pharmacol, 138, 977-85) The contraction produced by EFS in these experimental conditions is entirely mediated by SP and NKA released from terminals of primary sensory neurons. The eNANC response to EFS was reproducible at 60 min intervals. The effect of alfuzosin or its vehicle on the eNANC response to EFS was studied in parallel experiments. At the beginning or end of each experiment tissues were challenged with carbachol (1 μM). The effect of alfuzosin was studied also in bladder strips obtained from rats treated with cyclophosphamide. […]

[2] = test system: urinary bladder taken from CYP-treated rats; assay: contractile response to capsaicin in urinary bladder taken from CYP-treated rats; type: in vivo, rat; settings: pretreatment with alfuzosin; bladders from CYP-treated rats
Protocol: Male Sprague-Dawley rats and Swiss mice were administered with CYP (150 mg/kg, i.p.) or its vehicle (0.9% NaCl) for cystitis induction. 48 hours later urinary bladders were removed and placed in an organ bath for motor response measurement. Writhing behaviors and plasma protein extravasation were investigated 90 min after the CYP administration. […] The eNANC response to EFS was reproducible at 60 min intervals. The effect of alfuzosin or its vehicle on the eNANC response to EFS was studied in parallel experiments. At the beginning or end of each experiment tissues were challenged with carbachol (1 μM). The effect of alfuzosin was studied also in bladder strips obtained from rats treated with cyclophosphamide.

mice = assay: writhings evoked by intraperitoneal acetic acid in CYP-treated mice; type: in vivo; settings: pre-treatment 30 μg/kg i.v., CYP 150 mg/kg i.p.
Protocol: Male Sprague-Dawley rats and Swiss mice were administered with CYP (150 mg/kg, i.p.) or its vehicle (0.9% NaCl) for cystitis induction. 48 hours later urinary bladders were removed and placed in an organ bath for motor response measurement. Writhing behaviors and plasma protein extravasation were investigated 90 min after the CYP administration.

urinary bladder = assay: CYP-evoked plasma protein extravasation (Evans blue) in urinary bladder; type: in vivo; settings: CYP 150 mg/kg i.p., 90 min after CYP; ruthenium red 4 mg/kg s.c.; camphor 50 μmol/kg i.p.
Protocol: Male Sprague-Dawley rats and Swiss mice were administered with CYP (150 mg/kg, i.p.) or its vehicle (0.9% NaCl) for cystitis induction. 48 hours later urinary bladders were removed and placed in an organ bath for motor response measurement. Writhing behaviors and plasma protein extravasation were investigated 90 min after the CYP administration. Intraperitoneal administration of cyclophosphamide (150 mg/kg, 48 h before) is known to decrease bladder capacity and increased micturition frequency (Maggi et al., 1992, J Auton Nerv Syst, 38, 201-8). These effects of cyclophosphamide were abolished in rats pretreated with capsaicin as adults (Maggi et al., 1992, J Auton Nerv Syst, 38, 201-8). Thus, the inflammatory responses to cyclophosphamide are mediated by neurogenic inflammatory mechanisms. Evans blue dye was used to measure plasma extravasation. The proinflammatory stimulus was given immediately after the injection of the dye (30 mg/kg i.v. over 5 s) in the jugular vein. The chest was opened 10 min or at different time intervals as required after the injection of Evans blue and the animal perfused for 3 min with a phosphate buffer. The urinary bladder, urethra and prostate were removed, blotted and weighed. […] The amount of Evans blue extravasated from the […] was measured using a spectrophotometer and expressed as ng/mg of wet weight.

Structure (SMILES) | reversal of CYP-induced reduction of the contractile response to EFS (eNANC, in the presence of atropine) [1] | reversal of CYP-induced reduction of the contractile response to capsaicin [2] | reduction of the CYP-induced increase in number of writhings evoked by acetic acid (mice) | CYP-evoked plasma protein extravasation in urinary bladder (urinary bladder)
COc1cc2nc(N(C)CCCNC(=O)C3CCCO3)nc(N)c2cc1OC (centres unmarked) [alfuzosin] | > 50 % of reversal | ~50 % of reversal | 48 % of reduction | –
CC12CCC(CC1=O)C2(C)C (centres unmarked) [camphor] | – | – | – | completely prevented
N.N.N.N.N.N.N.N.N.N.N.N.N.N.[Cl-].[Cl-].[Cl-].[Cl-].[Cl-].[Cl-].[O-2].[O-2].[Ru+3].[Ru+3].[Ru+4] [ruthenium red] | – | – | – | completely prevented

Reference: patent publication US8492396B2, “Therapeutic uses of adrenergic α-1 receptor antagonists” (SANOFI, priority 2007, dated 2013)
